Where “and” joins values, the source holds several entries; their conditions need not be identical. Identical values can stand only once. Entries after “also recorded” stand apart in the source; their conditions may differ. Ends that are not written are not given here.
Legend:
[1] = tested on: MDA-MB-231 (breast adenocarcinoma) tumour cell line; assay: MTT viability assay (cytostasis %); assay type: cell-based, human; settings: MDA-MB-231, 72 h incubation in RPMI, mean of three absorbance readings
Method: (§1) Consecutive peptide dilutions with RPMI 1640 (Sigma Aldrich) were used, whereas the working concentrations were 120 μM, 60 μM, 30 μM, 15 μM, 7.5 μM, 3.5 μM, 1.8 μM, and 0.9 μM in a final volume of 200 μL/well. […] Everything was treated in a sterile fashion.
(§2) We analysed the cytotoxicity of the peptide chosen for our study in relation to two adherent tumour cell lines: MDA-MB-231 (breast adenocarcinoma) and M14K (human mesothelioma). These lines were cultivated in the same conditions as those used for the optimization of the number of target cells. The negative control was represented by target cells incubated without peptide. Viability was analysed after 72 h of incubation at 37°C, 5% CO2, by two methods: MTT colorimetric assay [3-(4,5-dimethylthiazol-2-yl)-2,5-diphenyltetrazolium bromide] and flow cytometry using PE Annexin V (BD Pharmingen) and 7-AAD (7-aminoactinomycin D).
(§3) [3-(4,5-Dimethylthiazol-2-yl)-2,5-diphenyltetrazolium Bromide] […] Absorbance was measured at 570 nm against a 620 nm reference wavelength using a Tecan Sunrise plate reader. Relying on the absorbance values read in the cells incubated with the peptide studied (A peptide cells) and depending on the absorbance value read in peptide-free cells (A negative control), we calculated the cytostasis percentage, that is, the percentage of cells affected by apoptosis of the whole number of cells in any of the wells analysed. […]

[2] = at its effective antimicrobial concentrations; cited from earlier work
From the text: This peptide is water soluble and nonhaemolytic at its effective and amphiphilic antimicrobial concentrations. At small concentrations, it inhibits the growth of numerous species of bacteria and fungi, and it induces osmotic lysis in protozoa ...

[3] = tested on: MDA-MB-231 (breast adenocarcinoma) tumour cell line; assay: PE Annexin V / 7-AAD flow cytometry apoptosis assay; assay type: cell-based, human; settings: MDA-MB231, 72 h in RPMI, 5000 events/well; for Q1—dead cells (7-AAD+): negative control 1.8; for Q2—late apoptosis cells (7-AAD+ Annexin V+): negative control 3; for Q4—early apoptosis cells (Annexin V+ 7-AAD−): negative control 4.7; for Q3—living cells (7-AAD− Annexin V−): negative control 90.5
Method: as §2
(§4) PE Annexin V and 7-AAD (7-Aminoactinomycin D) (BD Pharmingen) Viability Assay. This assay was used to detect and measure the apoptotic process by means of flow cytometry. Apoptosis is characterized by cell morphology changes, nuclear condensation, pyknosis, and also by a series of biochemical events causing mitochondrial membrane and nuclear DNA degradation. Phosphatidylserine, which is normally present in the inner layer of the lipid bilayer of the cell membrane, is exposed at the surface of the cells undergoing various stages of apoptosis. Annexin V has great affinity to phosphatidylserine residue, and 7-AAD was used as vital nuclear DNA stain. 96-well cell culture plates were used in our study. The first (1) and last (12) columns of wells only contained culture medium (RPMI 1640) in order to prevent the edge effect. Columns 2 and 11 of wells only contained peptide-free cell suspension (negative control). Columns 3–10 contained target cells and consecutive peptide dilutions. We worked in triplicate for the two cell lines and all the peptide concentrations we used. After 72 h of incubation at 37°C, 5% CO2, adherent cells were detached by trypsination (3–10 minutes of incubation at 37°C with Eurobio trypsin). The cell suspension was distributed in such a manner that each FACS tube had 1 × 10^5 cells. 3 FACS tubes were assessed; the first FACS tube contained unmarked cells, the second FACS tube contained Annexin V PE, and the third FACS tube contained Annexin V PE/7-AAD. Data collection and interpretation were done on a FACS Canto II flow cytometer using the FACSDiva Software (Becton Dickinson) (Figure 3).
Flow cytometry allowed apoptosis assessment for the MDA-MB-231 cell line incubated with the […]. 5000 events/well were acquired, and the results were compared with the viability of the peptide-free cells (negative control).

[4] = tested on: M14K (human mesothelioma) tumour cell line; assay: MTT viability assay (cytostasis %); assay type: cell-based; settings: 72 h incubation in RPMI, mean of three absorbance readings
Method: as §1, §2, §3

[5] = cited from earlier work
From the text: This peptide is water soluble and nonhaemolytic at its effective and amphiphilic antimicrobial concentrations. At small concentrations, it inhibits the growth of numerous species of bacteria and fungi, and it induces osmotic lysis in protozoa ... || According to the product specifications, this peptide is soluble in distilled water with 0.1% TFA. As the solution is meant to be inserted into cell culture medium, we have chosen RPMI as the most suitable medium. This medium also allowed us to maintain an optimum pH (7.2–7.4) as we inserted the peptide solution. The extemporaneous peptide solution was utilized immediately after preparation.

MCF7 tumour cell line = settings: cited from earlier work
From the text: MDA-MB-231 is an adherent breast adenocarcinoma cell line, one of the three known breast cancer cell lines: MCF-7, MDA-MB-231, and T-47D [18, 19].

[6] = tested on: M14K (human mesothelioma) tumour cell line; assay: PE Annexin V / 7-AAD flow cytometry apoptosis assay; assay type: cell-based; settings: for Q1 (7-AAD+) dead cells / Q2 (7-AAD+ Annexin V+) late apoptotic cells / Q4 (Annexin V+ 7AAD−) early apoptotic cells: 72 h in RPMI, 5000 events/well; for Q1 (7-AAD+) dead cells: negative control 2.1; for Q2 (7-AAD+ Annexin V+) late apoptotic cells: negative control 3.8; for Q4 (Annexin V+ 7AAD−) early apoptotic cells: negative control 4.5
Method: as §2, §4

GIGKFLHSAKKFGKAFVGEIMNS [Magainin II]
cytostasis % (MTT test) ([1]; 15 μM peptide): absent | cytostasis % (MTT test) ([1]; 30 μM peptide): persisted; also recorded: significantly lower | haemolysis [2]: nonhaemolytic | Q1—dead cells (7-AAD+) ([3]; 60 μM peptide): 0.8% | Q2—late apoptosis cells (7-AAD+ Annexin V+) ([3]; 60 μM peptide): 19.6% | Q4—early apoptosis cells (Annexin V+ 7-AAD−) ([3]; 60 μM peptide): 3.4% | Q3—living cells (7-AAD− Annexin V−) ([3]; 60 μM peptide): 76.2% | Q1—dead cells (7-AAD+) ([3]; 120 μM peptide): 1.4% | Q2—late apoptosis cells (7-AAD+ Annexin V+) ([3]; 120 μM peptide): 47.5% | Q4—early apoptosis cells (Annexin V+ 7-AAD−) ([3]; 120 μM peptide): 14.8% | Q3—living cells (7-AAD− Annexin V−) ([3]; 120 μM peptide): 36.3% | cytostasis % (MTT test) ([4]; 15 μM peptide): absent | cytostasis % (MTT test) ([4]; 30 μM peptide): significantly lower | solubility in water [5]: water soluble | solubility ([5]; distilled water with 0.1% TFA, ref product specifications (SIGMA M7402-1MG)): soluble | concentration with cytotoxic effect (MCF7 tumour cell line): exceed 200 μg/mL and > 80 μM | Q1 (7-AAD+) dead cells ([6]; 60 μM peptide): 0.3% | Q2 (7-AAD+ Annexin V+) late apoptotic cells ([6]; 60 μM peptide): 8.6% | Q4 (Annexin V+ 7AAD−) early apoptotic cells ([6]; 60 μM peptide): 5.9% | Q1 (7-AAD+) dead cells ([6]; 120 μM peptide): 2.8% | Q2 (7-AAD+ Annexin V+) late apoptotic cells ([6]; 120 μM peptide): 47.8% | Q4 (Annexin V+ 7AAD−) early apoptotic cells ([6]; 120 μM peptide): 13.5% | cell population that underwent apoptosis ([6]; 72 h, flow cytometry PE Annexin V/7-AAD, concentration not stated in the sentence (values match 120 μM)): over 50%

Source: PMC3809593 (BioMed Research International, 2013)
